{"source": "patent US20100144655A1", "about": "“ORGANIC COMPOUNDS” (NOVARTIS AG, priority 2008, published 2010)", "key": {"[1]": {"assay": "Bioavailability (tests not described)", "format": "in vivo", "conditions": "salt forms"}, "[2]": {"assay": "Storage properties (standard tests, not described)", "format": "physicochemical", "conditions": "salt forms"}, "HCV replicon": {"tested_on": "HCV replicon", "assay": "Cell-based HCV replicon assay (Huh-luc/neo-ET, luciferase)", "parameters": "species or system Hepatitis C virus", "conditions": "for EC50: Hepatitis C virus, Huh-7 cell line, luciferase readout", "text": "(§1) The CFI assay is based on quantitative immunodetection of the viral envelope protein, E, as a readout for viral load in target cells. In the CFI assay, the compounds of the invention show activity against dengue virus (e.g. dengue virus serotype 2). […] The HCV replicon contains an inserted firefly luciferase construct in its sequence. The genome of the HCV replicon is maintained as RNA species in a Huh-7 cell line (Krieger et al. Journal of Virology 2001; 75(10):4614-24). Measurement of luciferase activity is used as a surrogate marker for viremia in target cells.\nHVC replicon-containing cells, Huh-luc/neo-ET (e.g. as described in Krieger et al., Journal of Virology, 2001; 75(10):4614-24), are maintained in DMEM medium containing 2 mM […], 0.1 mM non-essential amino acid solution, 10% heat-inactivated fetal bovine serum and […] Geneticin®, G418 sulfate solution. The cells are kept between 20 to 80% confluency and are trypsinized with trypsin (0.05%)/EDTA solution. After trypsinization, cells are resuspended in supplemented DMEM phenol red-free medium (DMEM phenol red free supplemented with 2 mM L-glutamine, 0.1 mM non-essential amino acid solution, 10% of heat-inactivated fetal bovine serum and 1 mM sodium pyruvate) and pelleted by centrifugation at 420 g for 5 min. Cell density is calculated and diluted to 1×10^5 cells/mL with phenol red-free medium.\nTwo sets of plates are prepared, a white opaque 96-well plate for the luciferase reading and a 96-well clear plate for cytotoxicity measurement. Each well is seeded with 10,000 cells/well and incubated overnight at 37° C., 5% CO2. After incubation, the medium is aspirated and phenol red free medium supplemented with various concentrations of compounds is added and the plates further incubated for at 37° C., 5% CO2 for another 48 hours. A positive control may be used, such as, for example, (2R,3R,4R,5R)-2-(4-amino-pyrrolo[2,3-d]pyrimidin-7-yl)-3-ethynyl-5-hydroxymethyl-tetrahydrofuran-3,4-diol.\nFor determination of luciferase activity, the plates are removed from the incubator to allow them to equilibrate to room temperature for 30 minutes and luciferase activity is measured after the addition of 100 μL of the Britelite® (PerKin Elmer) prepared according to manufacturer's instructions."}, "[3]": {"tested_on": "dengue virus serotype 2 strain New Guinea C", "assay": "Cell-based flavivirus immunodetection (CFI) assay", "conditions": "for EC50: Dengue virus, A549, read-out: EC50 in the CFI assay for dengue virus", "text": "as §1\n50% effective concentration (EC50), is the concentration of the test compound that decreases the signal generated by the virus by 50%. It is calculated using nonlinear regression analysis using the variable slope sigmoidal dose-response curve, with commercial software such as Prism or ActivityBase.\nA549 cells (e.g. available from ATCC #CCL-185) are trypsinized, counted and diluted to 2×10^5 cells/ml in Hams F-12 media supplemented with 2% fetal bovine serum and 1% penicillin/streptomycin. 2×10^4 cells are dispensed in clear 96-well tissue culture plate per well and placed at 37° C., 5% CO2 overnight. On the next day, the cells are infected with virus (dengue serotype 2, NGC strain, e.g. available from ATCC #VR-1584) at multiplicity of infection (MOI) of 0.3 in the presence of varied concentrations of test compounds for 1 hour at 37° C. and 5% CO2 in the same media. The medium containing virus and the compounds is removed, replaced with fresh medium containing only the test compounds and incubated at 37° C., 5% CO2 for another 48 hours. The cells are washed once with PBS and fixed with cold methanol for 10 min. After washing twice with PBS, the fixed cells are blocked with PBS containing 1% FBS and 0.05% Tween-20 for 1 hour at room temperature. The primary antibody solution (4G2) is then added at a concentration of 1:20 to 1:100 in PBS containing 1% FBS and 0.05% Tween-20 for 3 hours. The cells are then washed three times with PBS followed by one hour incubation with horseradish peroxidase (HRP)-conjugated anti-mouse IgG (Sigma, 1:2000 dilution). After washing three times with PBS, 50 μL of 3,3′,5,5′-tetramethylbenzidine (TMB) substrate solution (Sigma) is added to each well for two minutes. The reaction is stopped by addition 0.5M sulfuric acid. The plates are read at 450 nm absorbance for viral load quantification. After measurement, the cells are washed three times with PBS, followed by incubation with propidium iodide for 5 min. The plate is read in a Tecan Safire plate reader (excitation 537 nm, emission 617 nm) for cell number quantification. Dose response curves are plotted from the mean absorbance versus the log of the concentration of test compounds. The EC50 is calculated by nonlinear regression analysis. A positive control may be used, such as, for example, (2R,3R,4R,5R)-2-(4-amino-pyrrolo[2,3-d]pyrimidin-7-yl)-3-ethynyl-5-hydroxymethyl-tetrahydrofuran-3,4-diol."}, "TSV01 dengue virus 2": {"tested_on": "TSV01 dengue virus 2", "assay": "Mouse model of dengue virus infection (viremia by plaque assay)", "format": "in vivo, AG129 mice", "experimental": "The compounds of the invention also show activity in vivo in a mouse model of dengue infection (Schul et al. Journal of Infectious Diseases 2007; 195:665-74). Briefly, AG129 mice (B&K Universal Ltd, Hull, UK) are housed in individually ventilated cages (TechniPlast, Italy) and used between 6 and 10 weeks of age. Mice are injected intraperitoneally with 0.6 ml TSV01 dengue virus 2 suspension. Blood samples are taken by retro orbital puncture under isoflurane anaesthesia. Blood samples are collected in tubes containing sodium citrate to a final concentration of 0.4%, and immediately centrifuged for 3 minutes at 6000 g to obtain plasma. 20 μL of plasma is diluted in 780 μL RPMI1640 medium and snap frozen in liquid nitrogen for plaque assay analysis. Remaining plasma is used for cytokine and NS1 protein level determination. Mice develop dengue viremia rising over several days, peaking on day 3 post-infection.\nFor testing of antiviral activity, a compound of the invention is dissolved in vehicle fluid, e.g. 10% ethanol, 30% PEG 300 and 60% D5W (5% dextrose in water); or 6N HCl (1.5 eq): 1N\nNaOH (pH adjusted to 3.5): 100 mM citrate buffer pH 3.5 (0.9% v/v: 2.5% v/v: 96.6% v/v). Thirty six 6-10 week old AG129 mice are divided into six groups of six mice each. All mice are infected with dengue virus as described above (day 0). Group 1 is dosed by oral gavage of 200 μL/mouse with 13 mg/kg of a compound of the invention twice a day (once early in the morning and once late in the afternoon) for three consecutive days starting on day 0 (first dose just before dengue infection). […] Thus, Groups 1 and 2 are dosed with a compound of the invention at 13 mg/kg and 32 mg/kg respectively, and Groups 3 and 4 are dosed with another compound of the invention at 13 mg/kg and 32 mg/kg respectively. A positive control may be used, such as, e.g., (2R,3R,4R,5R)-2-(4-amino-pyrrolo[2,3-d]pyrimidin-7-yl)-3-ethynyl-5-hydroxymethyl-tetrahydrofuran-3,4-diol, dosed by oral gavage of 200 μL/mouse the same way as the previous groups. A further group is treated with only vehicle fluid.\nOn day 3 post-infection approximately 100 μL blood samples, anti-coagulated with sodium citrate, are taken from the mice by retro-orbital puncture under isoflurane anaesthesia. Plasma is obtained from each blood sample by centrifugation and snap frozen in liquid nitrogen for plaque assay analysis. The collected plasma samples are analyzed by plaque assay as described in Schul et al. Journal of Infectious Diseases 2007; 195:665-74. Cytokines are also analysed as described in Schul et al. Journal of Infectious Diseases 2007; 195:665-74. NS1 protein levels are analysed using a Platelia® kit (BioRad Laboratories). An anti-viral effect is indicated by a reduction in cytokine levels and/or NS1 protein levels."}, "[4]": {"conditions": "32 mg/kg bid, oral gavage, 3 days, AG129 mice"}}}
{"molecule": "C#C[C@@]1(O)[C@H](O)[C@@H](CO)O[C@H]1n1ccc2c(N)ncnc21.C#C[C@@]1(O)[C@H](O)[C@@H](CO)O[C@H]1n1ccc2c(N)ncnc21.O=S(=O)(O)c1cccc2c(S(=O)(=O)O)cccc12", "note": "[(2R,3R,4R,5R)-2-(4-amino-pyrrolo[2,3-d]pyrimidin-7-yl)-3-ethynyl-5-hydroxymethyl-tetrahydrofuran-3,4-diol napadisylate 2:1 salt]", "values": [{"measurement": "bioavailability (in words)", "setting": "[1]", "value": "good bioavailability"}, {"measurement": "storage properties (in words)", "setting": "[2]", "value": "good storage properties"}]}
{"molecule": "C#C[C@@]1(O)[C@H](OC(=O)[C@@H](N)C(C)C)[C@@H](CO)O[C@H]1n1ccc2c(N)ncnc21", "note": "[Compound 3, (S)-2-Amino-3-methyl-butyric acid (2R,3R,4R,5R)-5-(4-amino-pyrrolo[2,3-d]pyrimidin-7-yl)-4-ethynyl-4-hydroxy-2-hydroxymethyl-tetrahydro-furan-3-yl ester]", "values": [{"measurement": "activity in the HCV replicon assay (in words)", "setting": "HCV replicon", "value": "exhibit activity"}, {"measurement": "EC50", "setting": "HCV replicon", "value": "~66", "unit": "nM"}, {"measurement": "activity in the CFI assay (in words)", "setting": "[3]", "value": "exhibit activity"}, {"measurement": "EC50", "setting": "[3]", "value": "~860", "unit": "nM"}, {"measurement": "reduction in viremia", "setting": "TSV01 dengue virus 2; [4]", "value": "about 45 fold"}, {"measurement": "activity in vivo in a mouse model of dengue virus infection (in words)", "setting": "TSV01 dengue virus 2", "value": "exhibit activity"}]}
{"molecule": "C#C[C@@]1(O)[C@H](OC(=O)C(C)C)[C@@H](CO)O[C@H]1n1ccc2c(N)ncnc21", "note": "[Compound 4, Isobutyric acid (2R,3R,4R,5R)-5-(4-amino-pyrrolo[2,3-d]pyrimidin-7-yl)-4-ethynyl-4-hydroxy-2-hydroxymethyl-tetrahydro-furan-3-yl ester]", "values": [{"measurement": "activity in the HCV replicon assay (in words)", "setting": "HCV replicon", "value": "exhibit activity"}, {"measurement": "activity in the CFI assay (in words)", "setting": "[3]", "value": "exhibit activity"}, {"measurement": "EC50", "setting": "[3]", "value": "~318", "unit": "nM"}, {"measurement": "reduction in viremia", "setting": "TSV01 dengue virus 2; [4]", "value": "about 113 fold"}, {"measurement": "activity in vivo in a mouse model of dengue virus infection (in words)", "setting": "TSV01 dengue virus 2", "value": "exhibit activity"}]}
{"molecule": "C#C[C@@]1(O)[C@H](OC(=O)C(C)C)[C@@H](COC(=O)C(C)C)O[C@H]1n1cc(C(N)=O)c2c(N)ncnc21", "note": "[Compound 10, Isobutyric acid (2R,3R,4R,5R)-5-(4-amino-5-carbamoyl-pyrrolo[2,3-d]pyrimidin-7-yl)-4-ethynyl-4-hydroxy-2-isobutyryloxymethyl-tetrahydro-furan-3-yl ester]", "values": [{"measurement": "activity in the HCV replicon assay (in words)", "setting": "HCV replicon", "value": "exhibit activity"}, {"measurement": "EC50", "setting": "HCV replicon", "value": "~35", "unit": "nM"}, {"measurement": "activity in the CFI assay (in words)", "setting": "[3]", "value": "exhibit activity"}, {"measurement": "EC50", "setting": "[3]", "value": "~440", "unit": "nM"}, {"measurement": "reduction in viremia", "setting": "TSV01 dengue virus 2; 25 mg/kg, mouse model of dengue virus infection", "value": "about 30 fold"}, {"measurement": "activity in vivo in a mouse model of dengue virus infection (in words)", "setting": "TSV01 dengue virus 2", "value": "exhibit activity"}]}
{"molecule": "(2R,3R,4R,5R)-2-(4-amino-pyrrolo[2,3-d]pyrimidin-7-yl)-3-ethynyl-5-hydroxymethyl-tetrahydrofuran-3,4-diol salicylate salt", "values": [{"measurement": "bioavailability (in words)", "setting": "[1]", "value": "good bioavailability"}, {"measurement": "storage properties (in words)", "setting": "[2]", "value": "good storage properties"}]}
